This note sets out measurements from PubChem BioAssay (NCI).

Values joined by “and” are separate entries in the source; they are usually repeats but may differ in a detail not shown here. Identical values can stand only once.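 Five concentrations, 48 hours, 96-well plates. Abbreviation: GI50, concentration required for 50% inhibition of growth. Definition used: TGI = concentration required for complete inhibition of growth.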 Where only a bound is given, the exact number is not on record here.

Test systems include NCI-H460 lung; COLO 205 colon; HCC-2998 colon; U251 CNS; CCRF-CEM leukemia; OVCAR-4 ovarian; SW-620 colon; HT29 colon; UACC-257 melanoma; NCI-H23 lung.
Holding throughout (test): inhibition of tumour cell growth, NCI panel, 48 h

For the compound `COc1ccc(-c2ccc(/C=C/C(=O)NO)cc2)cc1`, the GI50 is 0.142 µM in the assay with NCI-H460 lung; 2.34 µM in the assay with COLO 205 colon; 0.662 µM in the assay on HCC-2998 colon; 1.14 µM in the assay on U251 CNS; 0.0481 µM in the assay with CCRF-CEM leukemia; 0.362 µM in the assay on OVCAR-4 ovarian. Also, the GI50 in the assay on SW-620 colon is 0.754 µM; in the assay on HT29 colon it was 3.56 µM; in the assay on UACC-257 melanoma, 2.13 µM; in the assay on NCI-H23 lung it was 1.53 µM. Further, the TGI in the assay with NCI-H460 lung was 4.46 µM; in the assay on COLO 205 colon, 10.1 µM; in the assay with HCC-2998 colon, 7.92 µM; in the assay with U251 CNS it was 3.08 µM; in the assay on CCRF-CEM leukemia, over 100 µM; with OVCAR-4 ovarian, 4.44 µM. Moreover, the TGI with SW-620 colon was over 100 µM; with HT29 colon, over 100 µM; in the assay on UACC-257 melanoma it was 13.8 µM; with NCI-H23 lung, 6.18 µM.

For `COc1cc([C@@H]2c3cc4c(cc3[C@@H](NC(=O)c3ccc(N)cc3)C3COC(=O)[C@@H]32)OCO4)cc(OC)c1O` (stereo partly drawn), the TGI with NCI-H460 lung was 10.9 µM; with COLO 205 colon, 28.4 µM; in the assay on HCC-2998 colon, 17.2 µM; in the assay with U251 CNS it was 3.5 µM; in the assay on CCRF-CEM leukemia, 13.1 µM; with OVCAR-4 ovarian, over 100 µM. Further, the TGI in the assay with SW-620 colon is 20.8 µM; in the assay with HT29 colon, 19.4 µM; in the assay with UACC-257 melanoma, over 100 µM; in the assay on NCI-H23 lung, 4.97 µM.

`Cc1ccc2nc3c(C)c(Cl)c(=O)cc-3sc2c1`: the TGI in the assay on NCI-H460 lung was 97.4 µM; in the assay on COLO 205 colon it was over 80.8 µM; in the assay on HCC-2998 colon, over 100 µM; in the assay on U251 CNS, over 91.5 µM; in the assay with CCRF-CEM leukemia it was 56.8 µM; in the assay on OVCAR-4 ovarian, over 100 µM. Also, the TGI in the assay on SW-620 colon was over 100 µM; with HT29 colon, over 100 µM; with UACC-257 melanoma, 53.8 µM; in the assay on NCI-H23 lung, 34.3 µM.

As for `COC(=O)C1=C(OC)c2cc3c(cc2C(c2cc(OC)c(OC)c(OC)c2)C1C(=O)OC)OCO3` (stereo not drawn), the TGI with NCI-H460 lung, in the assay on COLO 205 colon, with HCC-2998 colon, with U251 CNS, in the assay with CCRF-CEM leukemia and in the assay with OVCAR-4 ovarian was over 100 µM each time. Besides, the TGI in the assay with SW-620 colon, with HT29 colon, with UACC-257 melanoma and with NCI-H23 lung was over 100 µM each time.

Consider `O=C1c2ccccc2C(=O)c2c(NCCCNCCO)ccc(NCCCNCCO)c21`, for which the TGI in the assay on NCI-H460 lung was found to be 15.5 µM; with COLO 205 colon, 18.9 µM; with HCC-2998 colon, 16.7 µM; with U251 CNS, 23.3 µM; with CCRF-CEM leukemia, 23.1 µM; with OVCAR-4 ovarian it was 26.9 µM. Moreover, the TGI in the assay on SW-620 colon came out at 17.6 µM; in the assay with HT29 colon it was 15.9 µM; in the assay with UACC-257 melanoma it was 46.8 µM; with NCI-H23 lung, 23.9 µM.

Turning to `Cc1cnc[nH]c1=O`, the TGI in the assay on NCI-H460 lung, in the assay on COLO 205 colon, with HCC-2998 colon, in the assay on U251 CNS, in the assay with CCRF-CEM leukemia and in the assay on OVCAR-4 ovarian was over 100 µM in each case. In addition, the TGI with SW-620 colon, in the assay with HT29 colon, with UACC-257 melanoma and in the assay with NCI-H23 lung was over 100 µM each time.

Take `C=CN1C(=O)OC(c2ccccc2)C1c1ccccc1` (stereo not drawn): the GI50 with NCI-H460 lung, in the assay with COLO 205 colon, with HCC-2998 colon, in the assay on CCRF-CEM leukemia, in the assay with OVCAR-4 ovarian and in the assay on HT29 colon was over 100 µM in each case. Besides, the GI50 in the assay on UACC-257 melanoma and with NCI-H23 lung was over 100 µM throughout. In addition, the TGI in the assay with NCI-H460 lung, with COLO 205 colon, with HCC-2998 colon, with U251 CNS, in the assay on CCRF-CEM leukemia and with OVCAR-4 ovarian was over 100 µM each time. Also, the TGI in the assay with SW-620 colon, in the assay on HT29 colon, with UACC-257 melanoma and in the assay on NCI-H23 lung was over 100 µM each time.

Consider `CCOC(=O)C1N(S(=O)(=O)c2ccc(C)cc2)CCC12c1ccccc1N(C(C)=O)C2C(/C=C/C(=O)OC)=C/C(=O)OC` (stereo not drawn), for which the TGI in the assay with NCI-H460 lung, in the assay on COLO 205 colon, in the assay with HCC-2998 colon, in the assay with U251 CNS, in the assay with CCRF-CEM leukemia and in the assay with OVCAR-4 ovarian was over 100 µM in each case. Moreover, the TGI in the assay on SW-620 colon, in the assay with HT29 colon, in the assay on UACC-257 melanoma and in the assay with NCI-H23 lung was over 100 µM each time.

For `CCN1CCN(c2nc(NNC(=O)Cc3ccccc3)nc(N3CCN(C(c4ccccc4)c4ccccc4)CC3)n2)CC1`, the GI50 in the assay with NCI-H460 lung was 1.89 µM; in the assay with COLO 205 colon it was 1.88 µM; in the assay on HCC-2998 colon, 1.71 µM; in the assay with U251 CNS, 1.78 µM; in the assay on CCRF-CEM leukemia it was 2.51 µM; with OVCAR-4 ovarian, 4.71 µM. The GI50 was 1.87 µM with SW-620 colon, 2.24 µM in the assay with HT29 colon, 1.83 µM in the assay with UACC-257 melanoma and 5.51 µM in the assay with NCI-H23 lung. The TGI with NCI-H460 lung worked out at 3.63 µM; in the assay on COLO 205 colon, 3.82 µM; with HCC-2998 colon, 3.39 µM; in the assay with U251 CNS, 3.6 µM; in the assay with CCRF-CEM leukemia it was 6.71 µM; with OVCAR-4 ovarian it was 17.5 µM. Besides, the TGI worked out at 3.69 µM in the assay on SW-620 colon, 5.66 µM in the assay on HT29 colon, 3.79 µM in the assay on UACC-257 melanoma and 18.8 µM in the assay with NCI-H23 lung.

For the compound `CCCS(=O)(=O)Nc1ccc(F)c(C(=O)c2c[nH]c3ncc(-c4ccc(Cl)cc4)cc23)c1F`, the GI50 is 3.01 µM and 5 µM in the assay on NCI-H460 lung; 0.0487 µM and 0.0423 µM in the assay with COLO 205 colon; 5.59 µM and 10 µM in the assay on HCC-2998 colon; 3.37 µM and 4.02 µM in the assay on U251 CNS; 4.01 µM and 5.42 µM in the assay on CCRF-CEM leukemia; 6.13 µM and > 7.33 µM in the assay on OVCAR-4 ovarian. In addition, the GI50 with SW-620 colon is 10 µM and > 8.98 µM; in the assay with HT29 colon, 0.0887 µM and 0.0812 µM; with UACC-257 melanoma it was 0.0485 µM and 0.0643 µM; with NCI-H23 lung, 7.82 µM and > 10 µM. Moreover, the TGI in the assay on NCI-H460 lung was 14 µM and > 10 µM; in the assay on COLO 205 colon, 11.2 µM and > 5.32 µM; with HCC-2998 colon it was 17.9 µM and > 10 µM; in the assay with U251 CNS, 15.9 µM and > 10 µM; in the assay with CCRF-CEM leukemia, 23.7 µM and > 10 µM; in the assay on OVCAR-4 ovarian it was 25.7 µM and > 10 µM. The TGI is 27.3 µM and > 10 µM in the assay on SW-620 colon; 9.55 µM and > 10 µM in the assay on HT29 colon; 3.71 µM and 0.604 µM with UACC-257 melanoma; 26.6 µM and > 10 µM in the assay with NCI-H23 lung.
